According to patent publication US12686665B2, “Bicyclic fused ring derivative or salt thereof and pharmaceutical composition comprising same” (YUHAN CORPORATION, priority 2021, dated 2026):
Where a name gives a salt, the structure may show the parent alone.

The compounds below were run against T1, recombinant human Lysyl Oxidase-Like 2 (LOXL2) (Homo sapiens, UniProt Q9Y4K0) (assay: Amplex Red HRP-coupled amine oxidase assay, recombinant human LOXL2). Conditions: 60 min incubation with enzyme at 37° C., putrescine substrate, read-out: Inhibitory activity (IC50, nM) human LOXL2.
T1 construct: purchased R&D systems
T1 sequence (Q9Y4K0 26-774): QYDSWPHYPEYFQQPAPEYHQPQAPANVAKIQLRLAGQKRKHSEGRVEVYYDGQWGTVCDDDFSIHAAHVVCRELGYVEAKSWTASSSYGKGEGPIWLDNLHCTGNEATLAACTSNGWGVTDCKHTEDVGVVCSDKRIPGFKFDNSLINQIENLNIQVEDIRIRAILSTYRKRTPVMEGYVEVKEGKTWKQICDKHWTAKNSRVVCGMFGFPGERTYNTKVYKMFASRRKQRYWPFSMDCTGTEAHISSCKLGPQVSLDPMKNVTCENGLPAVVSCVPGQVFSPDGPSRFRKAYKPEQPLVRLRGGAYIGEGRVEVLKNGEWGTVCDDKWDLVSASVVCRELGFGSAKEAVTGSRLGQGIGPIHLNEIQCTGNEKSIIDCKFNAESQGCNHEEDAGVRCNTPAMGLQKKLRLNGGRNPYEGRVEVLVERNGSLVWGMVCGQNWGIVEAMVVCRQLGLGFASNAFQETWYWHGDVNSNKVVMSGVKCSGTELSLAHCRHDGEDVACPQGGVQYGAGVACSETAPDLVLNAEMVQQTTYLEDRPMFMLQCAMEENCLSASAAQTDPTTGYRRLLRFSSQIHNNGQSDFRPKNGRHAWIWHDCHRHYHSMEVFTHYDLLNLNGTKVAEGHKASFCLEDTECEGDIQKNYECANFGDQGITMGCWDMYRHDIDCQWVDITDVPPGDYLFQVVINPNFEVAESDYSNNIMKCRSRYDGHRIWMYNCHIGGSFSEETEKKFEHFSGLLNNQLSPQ
Format: biochemical
Protocol: The activities of the compounds according to the present invention against recombinant human Lysyl Oxidase-Like 2 (recombinant human LOXL2, R&D systems) were evaluated by measuring the levels of hydrogen peroxide in the HRP (horseradish peroxidase) coupled reactions, with the Amplex Red Hydrogen Peroxide Assay Kit (Molecular Probes, Invitrogen, USA). The tests were carried out at 37° C., and putrescine was used as a substrate. In the HRP coupling reaction, the oxidation of 10-acetyl-3,7-dihydroxyphenoxazine (Amplex Red reagent) by hydrogen peroxide generates a fluorescent product, i.e., resorufin. Briefly, the test compounds were dissolved in dimethyl sulfoxide (DMSO) at a concentration of 20 mM. Dose-response measurements were carried out by serial dilutions in DMSO to generate a six-point curve. The upper concentration was adjusted according to the potency of the compound, and then diluted with the reaction buffer to obtain a final DMSO concentration of 1%. Purified human LOXL2 in 50 mM sodium phosphate buffer (pH7.4) was added to each well of a 96 well black plate. The test compounds dissolved in DMSO were incubated with the human LOXL2 enzyme at 37° C. for 60 minutes. After the incubation for 60 minutes, a reaction mixture containing 400 μM Amplex Red reagent, 30 mM putrescine, and 2 U/mL HRP in 50 mM sodium phosphate buffer (pH 7.4) was added to each well. Fluorescence was measured with a microplate reader (Flexstation3, Molecular Devices), under the conditions of excitation at 530 nm and emission at 590 nm, 1 hour after the addition of the mixture. Inhibition by each compound was measured as % reduction in signal, compared to the control without an inhibitor (diluted DMSO only). The data were fixed to a four-variable logistic model, and […] values were calculated using the GraphPad Prism program.

IC50 [nM]	Structure (SMILES)
18.7	CONC(=O)c1cc(-c2ccc(OC)c(S(=O)(=O)N(C)C)c2)c2nnn(C/C(F)=C/CN)c2c1 [Example 132, (Z)-1-(4-amino-2-fluorobut-2-en-1-yl)-4-(3-(N,N-dimethylsulfamoyl)-4-methoxyphenyl)-N-methoxy-1H-benzo[d][1,2,3]triazol-6-carboxamide hydrochloride]
182	NC/C=C(\F)Cn1nnc2c(-c3cnn(CCO)c3)cc(C(F)(F)F)cc21 [Example 205, (Z)-2-(4-(1-(4-amino-2-fluorobut-2-en-1-yl)-6-(trifluoromethyl)-1H-benzo[d][1,2,3]triazol-4-yl]-1H-pyrazol-1-yl)ethan-1-ol hydrochloride]
226	NC/C=C(\F)Cn1nnc2c(-c3cc(CO)ccc3F)cc(C(F)(F)F)cc21 [Example 198, (Z)-(3-(1-(4-amino-2-fluorobut-2-en-1-yl)-6-(trifluoromethyl)-1H-benzo[d][1,2,3]triazol-4-yl)-4-fluorophenyl)methanol hydrochloride]
37	CON(C)C(=O)c1cc(-c2cccc(S(=O)(=O)N3CCCC3)c2)c2nnn(C/C(F)=C/CN)c2c1 [Example 137, (Z)-1-(4-amino-2-fluorobut-2-en-1-yl)-N-methoxy-N-methyl-4-(3-(pyrrolidin-1-ylsulfonyl)phenyl)-1H-benzo[d][1,2,3]triazol-6-carboxamide hydrochloride]
330	NC/C=C(\F)Cn1nnc2c(-c3cncc(F)c3)cc(C(F)(F)F)cc21 [Example 200, (Z)-3-fluoro-4-(4-(5-fluoropyridin-3-yl)-6-(trifluoromethyl)-1H-benzo[d][1,2,3]triazol-1-yl)but-2-en-1-amine hydrochloride]
109	N#Cc1cc(-c2cccc(CO)c2Cl)c2ncn(C/C(F)=C/CN)c2c1 [Example 186, (Z)-1-(4-amino-2-fluoro-2-but-1-yl)-4-(2-chloro-3-(hydroxymethyl)phenyl)-1H-benzo[d]imidazol-6-carbonitrile hydrochloride]
42.9	COC(=O)c1cc(-c2ccc(OC)c(S(=O)(=O)NC(C)C)c2)c2nnn(C/C(F)=C/CN)c2c1 [Example 121, methyl (Z)-1-(4-amino-2-fluorobut-2-en-1-yl)-4-(3-(N-isopropylsulfamoyl)-4-methoxyphenyl)-1H-benzo[d][1,2,3]triazol-6-carboxylate hydrochloride]
62.5	CCN(CC)S(=O)(=O)c1ccc(OC)c(-c2cc(C(=O)OC)cc3c2ncn3C/C(F)=C/CN)c1 [Example 26, methyl (Z)-1-(4-amino-2-fluorobut-2-en-1-yl)-4-(5-(N,N-diethylsulfamoyl)-2-methoxyphenyl)-1H-benzo[d]imidazol-6-carboxylate hydrochloride]
323	NC/C=C(\F)Cn1cnc2c(-c3cnn(CCO)c3)cc(C(F)(F)F)cc21 [Example 180, (Z)-2-(4-(1-(4-amino-2-fluorobut-2-en-1-yl)-6-(trifluoromethyl)-1H-benzo[d]imidazol-4-yl)-1H-pyrazol-1-yl)ethan-1-ol hydrochloride]
60	NC/C=C(\F)Cn1nnc2c(-c3cccc(S(=O)(=O)NC4CC4)c3)cccc21 [Example 110, (Z)-3-(1-(4-amino-2-fluorobut-2-en-1-yl)-1H-benzo[d][1,2,3]triazol-4-yl)-N-cyclopropylbenzenesulfonamide hydrochloride]
463	CC(C)n1nccc1-c1cc(C(F)(F)F)cc2c1ncn2C/C(F)=C/CN [Example 178, (Z)-3-fluoro-4-(4-(1-isopropyl-1H-pyrazol-5-yl)-6-(trifluoromethyl)-1H-benzo[d]imidazol-1-yl)but-2-en-1-amine hydrochloride]
142	NC/C=C(\F)Cn1nnc2c(-c3cncc(Cl)c3)cc(C(F)(F)F)cc21 [Example 201, (Z)-4-(4-(5-chloropyridin-3-yl)-6-(trifluoromethyl)-1H-benzo[d][1,2,3]triazol-1-yl)-3-fluorobut-2-en-1-amine hydrochloride]
497	Cc1cc(-c2cc(C(F)(F)F)cc3c2nnn3C/C(F)=C/CN)n(C)n1 [Example 204, (Z)-4-[4-(1,3-dimethyl-1H-pyrazol-5-yl)-6-(trifluoromethyl)-1H-benzo[d][1,2,3]triazol-1-yl]-3-fluorobut-2-en-1-amine hydrochloride]
70.3	CCN(CC)S(=O)(=O)c1cccc(-c2cc(C(=O)OC)cc3c2ncn3C/C(F)=C/CN)c1 [Example 37, methyl (Z)-1-(4-amino-2-fluorobut-2-en-1-yl)-4-(3-(N,N-diethylsulfamoyl)phenyl)-1H-benzo[d]imidazol-6-carboxylate hydrochloride]
65	COc1ccc(S(=O)(=O)N2CCN(C)CC2)cc1-c1cccc2c1nnn2C/C(F)=C/CN [Example 113, (Z)-3-fluoro-4-(4-(2-methoxy-5-((4-methylpiperazin-1-yl)sulfonyl)phenyl)-1H-benzo[d][1,2,3]triazol-1-yl)but-2-en-1-amine hydrochloride]
51	NC/C=C(\F)Cn1nnc2c(-c3cccc(S(=O)(=O)N4CCCC4)c3)cccc21 [Example 104, (Z)-3-fluoro-4-(4-(3-(pyrrolidin-1-ylsulfonyl)phenyl)-1H-benzo[d][1,2,3]triazol-1-yl)but-2-en-1-amine hydrochloride]
308	CC(=O)c1ccc(F)c(-c2cc(C(F)(F)F)cc3c2nnn3C/C(F)=C/CN)c1 [Example 197, (Z)-1-(3-(1-(4-amino-2-fluorobut-2-en-1-yl)-6-(trifluoromethyl)-1H-benzo[d][1,2,3]triazol-4-yl)-4-fluorophenyl)ethan-1-one hydrochloride]
58.7	COC(=O)c1cc(-c2cccc(S(=O)(=O)N3CCC(F)(F)C3)c2)c2nnn(C/C(F)=C/CN)c2c1 [Example 115, methyl (Z)-1-(4-amino-2-fluorobut-2-en-1-yl)-4-(3-((3,3-difluoropyrrolidin-1-yl)sulfonyl)phenyl)-1H-benzo[d][1,2,3]triazol-6-carboxylate hydrochloride]
14.2	COC(=O)c1cc(-c2cccc(S(=O)(=O)N(C)C)c2)c2nnn(C/C(F)=C/CN)c2c1 [Example 124, methyl (Z)-1-(4-amino-2-fluorobut-2-en-1-yl)-4-(3-(N,N-dimethylsulfamoyl)phenyl)-1H-benzo[d][1,2,3]triazol-6-carboxylate hydrochloride]
464	N#Cc1cc(-c2cccnc2)c2ncn(C/C(F)=C/CN)c2c1 [Example 187, (Z)-1-(4-amino-2-fluorobut-2-en-1-yl)-4-(pyridin-3-yl)-1H-benzo[d]imidazol-6-carbonitrile hydrochloride]
419	CCn1nccc1-c1cc(C(F)(F)F)cc2c1ncn2C/C(F)=C/CN [Example 177, (Z)-4-(4-(1-ethyl-1H-pyrazol-5-yl)-6-(trifluoromethyl)-1H-benzo[d]imidazol-1-yl]-3-fluoro-but-2-en-1-amine hydrochloride]
18.6	COC(=O)c1cc(-c2ccc(OC)c(S(=O)(=O)N(C)C)c2)c2nnn(C/C(F)=C/CN)c2c1 [Example 114, methyl (Z)-1-(4-amino-2-fluorobut-2-en-1-yl)-4-(3-(N,N-dimethylsulfamoyl)-4-methoxyphenyl)-1H-benzo[d][1,2,3]triazol-6-carboxylate hydrochloride]
204	Cn1nc(C(F)(F)F)cc1-c1cc(C#N)cc2c1ncn2C/C(F)=C/CN [Example 193, (Z)-1-(4-amino-2-fluorobut-2-en-1-yl)-4-(1-methyl-3-(trifluoromethyl)-1H-pyrazol-5-yl)-1H-benzo[d]imidazol-6-carbonitrile hydrochloride]
24.4	CONC(=O)c1cc(-c2cccc(S(=O)(=O)N3CCCC3)c2)c2nnn(C/C(F)=C/CN)c2c1 [Example 133, (Z)-1-(4-amino-2-fluorobut-2-en-1-yl)-N-methoxy-4-(3-(pyrrolidin-1-ylsulfonyl)phenyl)-1H-benzo[d][1,2,3]triazol-6-carboxamide hydrochloride]
